Patent US20200207820A1, “ANTIVIRAL, ANTIFIBROTIC AND ANTICANCER ACTIVITIES OF ROYAL-JELLY PROTEINS” (priority 2017, published 2020)
“Also recorded” adds a separate entry of the source.

What was measured:
[1] = Acute toxicity (Karber's method); format: in vivo, male Albino rats
Experimental: Karber's method was used to study the acute toxicity effect of RJ in comparison with SOV using male Albino rats and the median lethal dosage (LD50) was calculated.
Fifty-five male Albino rats (80-120 g) were purchased from MISR University for Science and Technology (animal welfare assurance number A5865-01). Animals were housed in metal cages and allowed free access to a standard commercial diet and tap water. Rats were kept under conventional conditions of temperature, humidity and twelve hours light/dark cycle. All rats were acclimatized to the laboratory environment for one week prior to handling and were observed daily for abnormal signs. Handling of animals complied with the international guide for the care and use of laboratory animals (National Research Council, 1996).
Animals were divided into eleven groups (five animals in each) starting from group I to group X beside the control (received only water as the vehicle). Groups from (I) to (V) were administered RJ intraperitoneally, while groups from (VI) to (X) were orally received SOV using the gavage tube. RJ and SOV were given to the animals at various doses (140, 350, 700, 2500 and 5000 mg/kg bw), one dose for each group of animals (group I and VI received the lowest dose).
All animals were left for 24 h after RJ or SOV administration, and then the number of mortality in each group was recorded for calculation of the LD50 value. Also, the weights of animals in each group were recorded before sacrificing by decapitation. Blood samples were collected in heparin tubes by cardiac puncture for assessment of the erythrocytes, hematocrit (HCT), hematimetric indices, hemoglobin (Hb), platelets, and leukocytes (full and differential counts). In addition, ALT and AST, total proteins, albumin, urea, creatinine, sodium, potassium, triglycerides (TG) and cholesterol were determined using available commercial kits (RAM, Egypt). The vital organs including liver, lung, kidney, and spleen were carefully excised, weighed and examined.

[2] = system: HBV; assay: Quantitative analysis of intracellular HBV-DNA (Cobas Ampliprep TaqMan); format: cell-based, hepatitis B virus; details: PBMCs and HepG-2 cells, 72 h; SOV in PBMCs only
Experimental: (§1) PBMCs were obtained by Ficoll-Hypaque density gradient centrifugation method as described previously. In brief, the blood samples from healthy volunteers were diluted with equal volume of PBS, carefully layered on Ficoll-Hypaque, and centrifuged at 2000 rpm, 25° C. for 30 min. Then the undisturbed PBMCs layer (interface) was carefully transferred out, washed with 40 ml RPMI-1640 medium, and centrifuged at 1650 rpm for 10 min. Finally, the supernatant was removed and the cells were suspended in 5 ml of RPMI-1640 medium containing 10% FBS and counted using trypan blue stain.
(§2) HepG-2 cells were grown in RPMI-1640 medium (HyClone) supplemented with 10% heat-inactivated FBS.
(§3) Serum samples were obtained from HCV and HBV infected […] patients […] after agreement by the ethics committee. The HCV and HBV samples were positive for genotype 4a and D, respectively. The infected patients were neither under treatment prior to the study nor co-infected. The sera were kept at −80° C. until use. […]
(§4) SOV at the concentration of 4 mg was incubated only with HCV or HBV-infected PBMCs due to its potent anti-cancer effect. […] Then the HCV-RNA and HBV-DNA within these cells were quantified using the fully automated Cobas Ampliprep TaqMan Analyzer (CAP-CTM). This technique is one of the most recent techniques that used for diagnosis of viral hepatitis quantitatively. […]

[3] = system: HCV; assay: Quantitative analysis of intracellular HCV-RNA (Cobas Ampliprep TaqMan); format: cell-based, Hepatitis C virus; details: PBMCs and HepG-2 cells, 72 h; SOV in PBMCs only
Experimental: as §1, §2, §3, §4

[4] = system: HCV; assay: Qualitative screening for HCV (+) strand RNA by RT-nested PCR in infected PBMCs and HepG-2 cells; format: cell-based, Hepatitis C virus; details: HCV-infected PBMCs and HepG-2 cells, 72 h; RJ 0.2 and 1 mg, PFs 1 mg, MRJPs 250 μg, SOV 4 mg (PBMCs only)
Experimental: as §1, §2, §3
After cellular infection, the infected medium was replaced with a fresh RPMI-1640 medium containing 10% FBS for positive control wells. […] The HCV (+) strand was detected by reverse transcription-nested polymerase chain reaction (RT-nested PCR) using the Ready-To-Go RT-PCR beads (Amersham Pharmacia Biotech, Piscataway, N.J., USA) following the instructions. […]

[5] = system: hepatocytes; assay: In vitro assessment of liver fibrosis: CCl4-induced fibrosis in hepatocytes; format: cell-based, Albino rats
Experimental: Hepatocytes were isolated from the liver of two male Albino rats 1 week of age. Rats were anesthetized, then liver was dissected, washed and incubated for 15 min with 10× penicillin and streptomycin. Afterward, the liver was washed using PBS, minced and incubated for 30 min with 3 U/mL of collagenase I with gentle shaking to obtain the cell suspension. The solution was centrifuged for […] at 1000 rpm and the pellet (hepatocytes) was washed, suspended in William's E medium containing 10% FBS and incubated at […] in CO2 incubator. After 90% cell confluent, hepatocytes were passaged with trypsin-EDTA. Then cells were stained with trypan blue, checked for viability and counted using the phase contrast inverted microscope (Olympus IX 81, Tokyo, Japan).
For induction of fibrosis, hepatocytes were incubated with various concentrations (0.13-1.30 mM) of CCl4 for 48 h. At the end of the incubation period, the cell viability was assessed and the IC50 value (half maximal inhibitory concentration of CCl4 to the hepatocytes growth) was calculated by the GraphPad Instat software version 3. This value was used for in vitro induction of fibrosis in hepatocytes (FM). After induction, Fb1 was incubated with the safe concentration of each of the studied compounds and incubated for 72 h at 5% CO2 and 37° C. The normal cells and the untreated Fb1 (Fb) were involved as negative and positive control cells, respectively.
At the end of the incubation period, media were collected and used in the assessment of the hepatocyte damage indices. However, cells were examined morphologically for identification of apoptosis.
Alanine and aspartate aminotransferases (ALT and AST), and albumin were determined using available commercial kits (RAM, Egypt). TNF-α (ELISA kit, RayBiotech, USA) and collagen IV (ELISA kit, Kamiya Biomedical) were determined following the manufacturer's instructions. Nitric oxide (NO) level was assessed by measurement of the nitrite using the Griess reaction, which produced colored azo dye with a maximum absorbance at 490 nm. Hydroxyproline content in the medium was measured using chloramines T and […] solutions. The absorbance of the produced color was read spectrophotometrically at 560 nm and the concentration was determined from the hydroxyproline calibration curve.
Apoptosis was investigated by double staining cells after washing with PBS with 100 μg/mL of ethidium bromide (EB) and acridine orange (AO) as described previously and then visualized under the fluorescent phase contrast microscope.

[6] = system: HepG-2 cell line; assay: Anti-cancer assay (MTT); format: cell-based, human; details: HepG-2 cells, 72 h
Experimental: The cytotoxic effect of RJ and its isolated PFs against HepG-2 cell line were evaluated. The cell viability was determined by MTT assay to investigate the cytotoxicity. Cells (3×10^3/well) were seeded in 96-well plate and left to attach for overnight. Serial concentrations (6.25-100 μM) of each of the tested compounds were added to the attached cells and incubated for 72 h at 37° C. in an atmosphere of 5% CO2 and the untreated cells were included as negative control. Then, 20 μl of MTT solution (0.5 mg/ml) was added to each well and the plate was incubated at 37° C. and 5% CO2 for 4 h. The medium with MTT was replaced by 150 μl of DMSO and the absorbance of the produced color was read at 570 nm by the microplate reader. The concentration of each of the studied compounds that inhibit the cancer cell growth by 50% (IC50 values) was determined from the dose-response curves. Additionally, the morphological changes of the tumor cells were examined using the phase-contrast microscope.

[7] = SOV oral 2500 and 5000 mg/kg bw

CC(C)OC(=O)[C@H](C)N[P@](=O)(OC[C@H]1O[C@@H](n2ccc(=O)[nH]c2=O)[C@](C)(F)[C@@H]1O)Oc1ccccc1 [SOV, Sofosbuvir]
body weights ([1]; 24 h, all doses, versus control group): didn't cause any significant change; also recorded: no significant change
hematological parameters ([1]; 24 h after administration): Slight changes
serum urea level ([1]; SOV 350-5000 mg/kg bw): significant elevation
potassium level ([1]; SOV 2500, 5000 mg/kg bw): depleted
serum sodium level ([1]; SOV 2500, 5000 mg/kg bw): elevated
ALT activity ([1]; SOV 2500 and 5000 mg/kg bw): didn't affect
activity of AST ([1]; SOV 2500 and 5000 mg/kg bw): significantly elevated
serum level of albumin ([1]; SOV 2500 and 5000 mg/kg bw): significantly reduce
total proteins level ([1]; SOV 2500 and 5000 mg/kg bw): didn't affect
TG level ([1]; SOV nearly at all doses): significantly increased
cholesterol level ([1]; SOV nearly at all doses): significantly increased
% organ-body weight ratio, spleen ([1]; SOV oral 350 to 5000 mg/kg bw): enlargement
% organ-body weight ratio, liver [1, 7]: significant enlargement
% organ-body weight ratio, lung [1, 7]: significant enlargement
% organ-body weight ratio, kidney ([1]; SOV oral all given doses (140-5000 mg/kg bw)): significant enlargement
mortality ([1]; after 24 h, all studied doses (140-5000 mg/kg bw), RJ intraperitoneal, SOV oral): no mortality
toxic dose ([1]; rats, all the studied doses): ≥ 140 mg/kg
toxicity on vital organs ([1]; rats, liver, lung, kidney, spleen): highly toxic effects on kidney, spleen and lung and less toxicity on the liver; also recorded: highly toxic
efficacy against HBV / activity of HBV (intracellular HBV) [2]: increases the activity of HBV
efficacy against HCV (intracellular HCV) [3]: less anti-HCV
anti-HCV effect (HCV (+) strand RNA, RT-nested PCR) [4]: anti-HCV effect
collagen and hydroxyproline levels ([5]; CCl4-induced fibrosis in hepatocytes (Fb1)): suppressive effect
antifibrotic / therapeutic effect overall ([5]; CCl4-induced fibrosis in hepatocytes, compared with SM and SOV): less antifibrotic activities
inflammatory mediators' level (NO and TNF-α) ([5]; fibrotic cells (Fb1)): anti-inflammatory effect
hepatocytes morphology / apoptosis (acridine orange/ethidium bromide staining) ([5]; fibrotic hepatocytes (Fb1), 72 h treatment, 200 μg/mL): less potency
cytotoxic (anticancer) effect [6]: potent activity
cytotoxic (anticancer) effect ([6]; listed as Sovaldi): more potent anticancer effect than the RJ proteins

B1: MRJP2: major royal jelly protein 2, bound protein purified from PF50 by CM-Sephadex ion-exchange chromatography (protein, UniProt O77061 18-452, looked up)
Major royal jelly protein 2: AIVRENSPRNLEKSLNVIHEWKYFDYDFGSEERRQAAIQSGEYDHTKNYPFDVDQWRDKTFVTILRYDGVPSTLNVISGKTGKGGRLLKPYPDWSFAEFKDCSKIVSAFKIAIDKFDRLWVLDSGLVNRTVPVCAPKLHVFDLKTSNHLKQIEIPHDIAVNATTGKGGLVSLAVQAIDLANTLVYMADHKGDALIVYQNADDSFHRLTSNTFDYDPRYAKMTIDGESFTLKNGICGMALSPVTNNLYYSPLASHGLYYVNTAPFMKSQFGENNVQYQGSEDILNTQSLAKAVSKNGVLFVGLVGNSAVGCWNEHQSLQRQNLEMVAQNDRTLQMIAGMKIKEELPHFVGSNKPVKDEYMLVLSNRMQKIVNDDFNFDDVNFRILGANVKELIRNTHCVNNNQNDNIQNTNNQNDNNQKNNKKNANNQKNNNQNDN
anti-HCV effect (HCV (+) strand RNA, RT-nested PCR) [4]: anti-HCV effect
inflammatory mediators' level (NO and TNF-α) ([5]; fibrotic cells (Fb1)): Normalization
liver function parameters (ALT, AST, albumin) in medium ([5]; fibrotic cells (Fb1)): Improvement
cytotoxic (anticancer) effect [6]: nearly as potent as SOY and 5-FU
